Experiment [1] has as its target Human recombinant GST-PI3Kγ (Homo sapiens, UniProt P48736). The experiment is described as follows: High throughput PI3K lipid kinase assay (SPA, neomycin-coated beads). Particulars: 180 min at room temperature. The format is biochemical. From the text:
a) High Throughput PI3K Lipid Kinase Assay (Binding Assay):
The efficacy of compounds of the invention in inhibiting the PI3K induced-lipid phosphorylation may be tested in the following binding assay.
The assay combines the scintillation proximity assay technology (SPA, Amersham) with the capacity of neomycin (a polycationic antibiotic) to bind phospholipids with high affinity and specificity. The Scintillation Proximity Assay is based on the properties of weakly emitting isotopes (such as ^3H, ^125I, ^33P). Coating SPA beads with neomycin allows the detection of phosphorylated lipid substrates after incubation with recombinant PI3K and radioactive ATP in the same well, by capturing the radioactive phospholipids to the SPA beads through their specific binding to neomycin.
To a 384 wells MTP containing 5 μl of the test compound of Formula (I) (solubilized in 6% DMSO; to yield a concentration of 100, 30, 10, 3, 1, 0.3, 0.1, 0.03, 0.01, 01 μM of the test compound), the following assay components are added. 1) 5 μl (58 ng) of Human recombinant GST-PI3Kγ (in Hepes 40 mM, pH 7.4, DTT 1 mM and ethyleneglycol 5%) 2) 10 μl of lipid micelles and 3) 10 μl of Kinase buffer ([^33P]γ-ATP 45 μM/60 nCi, MgCl2 30 mM, DTT 1 mM, β-Glycerophosphate 1 mM, Na3VO4 100 μM, Na Cholate 0.3%, in Hepes 40 mM, pH 7.4). After incubation at room temperature for 180 minutes, with gentle agitation, the reaction is stopped by addition of 60 μl of a solution containing 100 μg of neomycin-coated PVT SPA beads in PBS containing ATP 10 mM and EDTA 5 mM. The assay is further incubated at room temperature for 60 minutes with gentle agitation to allow binding of phospholipids to neomycin-SPA beads. After precipitation of the neomycin-coated PVT SPA beads for 5 minutes at 1500×g, radioactive PtdIns(3)P is quantified by scintillation counting in a Wallac MicroBeta™ plate counter.
The values indicated in Table I below refer to the IC50 (μM) with respect to PI3Kγ, i.e. the amount necessary to achieve 50% inhibition of said target. Said values show a considerable inhibitory potency of thiazole compounds with regard to PI3Kγ.

Experiment [2] relates to Akt/PKB phosphorylation in Raw 264-7 macrophages. The experiment is described as follows: Cell based ELISA of Akt/PKB phosphorylation after Complement 5a stimulation. Particulars: Mus musculus, RAW264.7, 50 nM Complement 5a for 5 minutes, inhibitor pretreatment 20 minutes, read-out: Cell Assay (P-Akt, Elisa) IC50. As to the method: b) Cell Based ELISA to Monitor PI3K Inhibition:
The efficacy of compounds of the invention in inhibiting the PI3K induced Akt/PKB phosphorylation may be tested in the following cell based assay.
Measurement of Akt/PKB phosphorylation in macrophages after stimulation with Complement 5a: Raw 264: Raw 264-7 macrophages (cultured in DMEM-F12 medium containing 10% Fetal Calf serum and antibiotics) are plated at 20'000 cells/well in a 96 MTP 24 h before cell stimulation. Prior to the stimulation with 50 nM of Complement 5a during 5 minutes, Cells are serum starved for 2 h, and pretreated with inhibitors for 20 minutes. After stimulation cells are fixed in 4% formaldehyde for 20 minutes and washed 3 times in PBS containing 1% Triton X-100 (PBS/Triton). […] Next, phosphorylated Akt/PKB is detected by an overnight incubation at 4° C. with primary antibody (anti phospho Serine 473 Akt IHC, Cell Signaling) diluted 800-fold in PBS/Triton, containing 5% bovine serum albumin (BSA). After 3 washes in PBS/Triton, cells are incubated for 60 minutes with a peroxidase conjugated goat-anti-rabbit secondary antibody (1/400 dilution in PBS/Triton, containing 5% BSA), washed 3 times in PBS/Triton, and 2 times in PBS and further incubated in 100 μl of luminescent substrate reagent solution (Pierce) for 2 minutes, followed by the reading (1 s/well). […]
(An ELISA detects its analyte on a solid surface through an enzyme-linked reagent.)

The test system of experiment [3] is Class I PI3-kinases. The conditions noted are these: Fruman et al., 1998; read-out: IC50 against each of the various Class I PI3-kinases; cited from earlier work.

As usually defined, the IC50 is the point on the concentration scale where inhibition reaches its midpoint.

Chain of Human recombinant GST-PI3Kγ (P48736 whole entry): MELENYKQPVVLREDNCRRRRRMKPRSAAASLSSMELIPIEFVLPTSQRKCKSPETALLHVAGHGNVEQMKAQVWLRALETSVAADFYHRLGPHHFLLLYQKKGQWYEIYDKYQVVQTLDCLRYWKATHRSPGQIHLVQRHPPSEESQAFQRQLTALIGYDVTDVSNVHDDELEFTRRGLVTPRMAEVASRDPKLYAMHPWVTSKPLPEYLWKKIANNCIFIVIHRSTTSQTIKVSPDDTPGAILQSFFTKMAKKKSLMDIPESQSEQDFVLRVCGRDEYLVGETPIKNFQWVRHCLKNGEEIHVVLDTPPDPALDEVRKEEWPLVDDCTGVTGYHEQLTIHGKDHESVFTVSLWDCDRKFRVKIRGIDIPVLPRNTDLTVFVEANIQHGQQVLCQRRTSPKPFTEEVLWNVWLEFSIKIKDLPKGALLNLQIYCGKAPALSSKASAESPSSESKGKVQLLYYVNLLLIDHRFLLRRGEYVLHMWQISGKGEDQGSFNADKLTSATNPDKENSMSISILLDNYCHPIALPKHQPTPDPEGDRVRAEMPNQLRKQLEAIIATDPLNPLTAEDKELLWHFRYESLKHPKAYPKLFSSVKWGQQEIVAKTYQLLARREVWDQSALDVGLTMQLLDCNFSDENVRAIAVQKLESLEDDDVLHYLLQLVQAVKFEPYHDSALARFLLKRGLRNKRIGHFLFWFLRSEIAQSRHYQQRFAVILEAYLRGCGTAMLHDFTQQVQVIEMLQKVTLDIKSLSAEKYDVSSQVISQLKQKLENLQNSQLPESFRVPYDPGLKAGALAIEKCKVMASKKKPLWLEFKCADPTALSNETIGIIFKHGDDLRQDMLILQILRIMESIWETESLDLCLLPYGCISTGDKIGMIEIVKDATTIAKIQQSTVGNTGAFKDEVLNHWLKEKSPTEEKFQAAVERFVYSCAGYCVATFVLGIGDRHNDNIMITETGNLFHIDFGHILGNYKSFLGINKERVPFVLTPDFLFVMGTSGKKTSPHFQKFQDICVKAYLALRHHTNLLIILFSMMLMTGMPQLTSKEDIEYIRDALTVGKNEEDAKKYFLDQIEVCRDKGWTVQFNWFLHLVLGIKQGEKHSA

Take `CC(=O)Nc1nc(C)c(-c2cnn(C)c2)s1` [Example 1, N-[4-methyl-5-(1-methyl-1H-pyrazol-4-yl)-1,3-thiazol-2-yl]acetamide]: the IC50 in experiment [1] amounted to 1340 nM. `CC(=O)Nc1nc(C)c(-c2cn[nH]c2)s1` [Example 3, N-[4-methyl-5-(1H-pyrazol-4-yl)-1,3-thiazol-2-yl]acetamide]: in experiment [1], the IC50 came to 413 nM. For the compound `CC(=O)Nc1nc(C)c(-c2cnn(C(=O)NCCN(C)C)c2)s1` [Example 5, 4-[2-(acetylamino)-4-methyl-1,3-thiazol-5-yl]-N-[2-(dimethylamino)ethyl]-1H-pyrazole-1-carboxamide], the half-maximal inhibitory concentration (IC50) in experiment [1] was 1230 nM. On the same count and under the same terms, the result for `COc1ccc(S(=O)(=O)n2cc(-c3sc(NC(C)=O)nc3C)cn2)cn1` [Example 7, N-(5-{1-[(6-methoxypyridin-3-yl)sulfonyl]-1H-pyrazol-4-yl}-4-methyl-1,3-thiazol-2-yl)acetamide] reads 282 nM. In the case of `CC(=O)Nc1nc(C)c(-c2cnn(S(=O)(=O)c3cn(C)cn3)c2)s1` [Example 8, N-(4-methyl-5-{1-[(1-methyl-1H-imidazol-4-yl)sulfonyl]-1H-pyrazol-4-yl}-1,3-thiazol-2-yl)acetamide], the figures for the 50% inhibitory concentration (IC50) in experiment [1] and in experiment [2] were 111 nM and 850 nM, respectively. As for `CC(=O)Nc1nc(C)c(-c2cnn(S(=O)(=O)c3ccc(C(=O)O)cc3)c2)s1` [Example 14, 4-({4-[2-(acetylamino)-4-methyl-1,3-thiazol-5-yl]-1H-pyrazol-1-yl}sulfonyl)benzoic acid], the concentration for half-maximal inhibition (IC50) in experiment [1] worked out at 708 nM. Regarding wortmannin, the IC50 in experiment [3] was 1 to 10 nM.
